Experimental data taken from US4505889A, “Protracted release microbiocidal article for aqueous systems” (Rohm and Haas Company, priority 1982, dated 1985).
Values after ≈ are worked out from the molar mass of the structure shown.

Legend:
[1] = Water solubility of the isothiazolones; conditions: for solubility: water
[2] = Rate of release and concentration of active ingredient from sealed cellulose film bags into deionized water, followed by ultraviolet spectroscopy; format: physicochemical; conditions: 1.28 g of 7% composition on Celite 545 in sealed 3-mil cellulose bag, 800 ml deionized water, complete release = 112 ppm
Description: There was sealed in bags of 3-mil cellulose film (3.5 in.^2 surface area) 1.28 g. of each of the three compositions prepared in Example 1 containing compounds A, B, and C, respectively. For comparison, 1.28 g. of a 7% active ingredient solid composition of Kathon®886 (a 3:1 weight ratio blend of 5-chloro-2-methyl-3-isothiazolone and 2-methyl-3-isothiazolone with 15 weight % of Mg(NO3)2 and 9 weight % of MgCl2 in aqueous solution containing 14% active ingredient available from the Rohm and Haas Company) absorbed on Celite®545 was sealed in a bag of 3-mil cellulose film (3.5 in.^2 surface area). The rate of release and concentration of active ingredient from the sealed bags into 800 ml. of deionized water was followed by ultraviolet spectroscopy. Complete release of active ingredient from each sample would give 112 ppm.

[3] = Release of active ingredient from solid Celite 545 composition stirred in deionized water, followed by ultraviolet spectroscopy; format: physicochemical; conditions: for Concentration in Solution at Elapsed Time: 1.28 g of 7% composition on Celite 545 in 800 ml deionized water, total release = 112 ppm; for time required to reach a saturated solution: solid composition on Celite 545 in deionized water
Description: To 13.28 g. of Celite®545 in each of three glass bottles was added 1 g. of the following isothiazolones in 20 ml. of methanol:
Each mixture was then stirred by hand with a spatula until it appeared to be uniformly mixed and free-flowing. Air drying, to remove methanol, affords solid product, 14.28 g., containing 7 weight % of active ingredient.
1.28 g. of each of the resulting solid microbiocidal compositions was stirred in 800 ml. of deionized water. The release of active ingredient was followed by analysis of the supernatant water by ultraviolet spectroscopy. Total release of active ingredient would give 112 ppm.

physchem = conditions: water

Structure (SMILES)	Water Solubility ([1]; Example 3 table head) [ppm]	solubility [1] [µg/mL]	Concentration/Rate of Release ([2]; 1 day) [ppm]	Concentration/Rate of Release ([2]; 5 days) [ppm]	Concentration in Solution at Elapsed Time ([3]; 0.75 hr.) [ppm]	Concentration in Solution at Elapsed Time ([3]; 3.0 hr.) [ppm]	Concentration in Solution at Elapsed Time ([3]; 23.0 hr.) [ppm]	Concentration in Solution at Elapsed Time ([3]; 66.0 hr.) [ppm]	solubility ([1]; Water Solubility, Example 1 table) [µg/mL]	solubility ([1]; Water Solubility, Example 3 table head) [µg/mL]	time required to reach a saturated solution [3]	solubility (physchem) [µg/mL]
CCCCCCCCn1sc(Cl)c(Cl)c1=O [Compound C, 4,5-dichloro-2-octyl-3-isothiazolone]	14	14 (≈ 49.6 µM)	0.4	1.7	7	10	14	14	–	–	–	–
O=c1c(Cl)c(Cl)sn1C1CCCCC1 [B, 4,5-dichloro-2-cyclohexyl-3-isothiazolone]	–	–	5	11	27	39	–	39	40 (≈ 159 µM)	42 (≈ 167 µM)	1 to 3 h	–
CCCCCCCCn1sccc1=O [A, 2-octyl-3-isothiazolone]	–	–	27	82	–	–	–	–	–	–	less than 1 hours	500 (≈ 2340 µM)
